# Reference: ChEMBL document CHEMBL1201862, “PubChem BioAssay data set” (2004)
# The source made the active and inactive calls.
# Key:
# [1] = biological target: Cytochrome P450 2D6 (Homo sapiens, UniProt P10635);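 also: CYP2D6 member of a cytochrome P450 panel assay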
# [2] = biological target: Cytochrome P450 2C19 (Homo sapiens, UniProt P33261); assay: Cytochrome panel assay with activity outcomes. Panel member name: p450-cyp2c19 Compounds with AC50 equal or less than 10 uM are considered active; format: functional
# [3] = cells; format: functional
# [4] = system: Streptococcus; assay: GAS UMAA2166 growth inhibition – luminescence, BacTiterGlo, counter-screen for streptokinase expression inhibitor project, dose response (AID 1915); format: functional, organism-based;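 also: potency for reduction of bacterial viability or growth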
# [5] = system: Streptococcus sp. 'group A'; assay: Streptococcus pyogenes SK(-)GAS viability under kanamycin – luminescence, BacTiterGlo, confirmation, counter-screen for streptokinase expression inhibitor project, dose response (AID 1900); format: functional, organism-based
# [6] = Vero E6 cell cytotoxicity, dose response, cytotoxicity control for non-replicating M. tuberculosis project, secondary assay (AID 492998); format: functional, VeroE6; settings: Vero C1008
# [7] = biological target: T1, Streptokinase A (Streptococcus pyogenes serotype M1, UniProt P10520); assay: viability-normalized secreted streptokinase activity reduction – plasminogen activation absorbance, OD405, dose response (AID 1914); format: functional, Streptococcus pyogenes M1 GAS;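 also: secreted streptokinase activity via plasminogen activation per viability signal from cell pellet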
# T1 sequence (P10520 whole entry): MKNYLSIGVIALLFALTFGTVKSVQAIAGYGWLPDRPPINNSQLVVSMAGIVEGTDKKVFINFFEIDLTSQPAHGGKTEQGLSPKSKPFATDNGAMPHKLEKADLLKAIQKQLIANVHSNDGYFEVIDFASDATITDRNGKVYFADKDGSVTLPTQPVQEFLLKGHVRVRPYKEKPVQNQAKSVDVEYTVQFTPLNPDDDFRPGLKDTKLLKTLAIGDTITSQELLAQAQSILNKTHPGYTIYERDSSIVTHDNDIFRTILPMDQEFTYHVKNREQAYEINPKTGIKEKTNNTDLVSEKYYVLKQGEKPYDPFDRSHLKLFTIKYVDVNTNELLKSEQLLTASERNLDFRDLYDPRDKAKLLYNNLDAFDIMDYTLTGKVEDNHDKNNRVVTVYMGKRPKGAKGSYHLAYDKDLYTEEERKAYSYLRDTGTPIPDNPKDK
# [8] = THP-1 cell cytotoxicity, dose response, cytotoxicity control for non-replicating M. tuberculosis project (AID 489025); format: functional
# [9] = biological target: T2, Cytochrome P450 1A2 (Homo sapiens, UniProt P05177);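 also: PubChem cytochrome P450 panel assay, CYP1A2 panel member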
# T2 sequence (P05177 whole entry): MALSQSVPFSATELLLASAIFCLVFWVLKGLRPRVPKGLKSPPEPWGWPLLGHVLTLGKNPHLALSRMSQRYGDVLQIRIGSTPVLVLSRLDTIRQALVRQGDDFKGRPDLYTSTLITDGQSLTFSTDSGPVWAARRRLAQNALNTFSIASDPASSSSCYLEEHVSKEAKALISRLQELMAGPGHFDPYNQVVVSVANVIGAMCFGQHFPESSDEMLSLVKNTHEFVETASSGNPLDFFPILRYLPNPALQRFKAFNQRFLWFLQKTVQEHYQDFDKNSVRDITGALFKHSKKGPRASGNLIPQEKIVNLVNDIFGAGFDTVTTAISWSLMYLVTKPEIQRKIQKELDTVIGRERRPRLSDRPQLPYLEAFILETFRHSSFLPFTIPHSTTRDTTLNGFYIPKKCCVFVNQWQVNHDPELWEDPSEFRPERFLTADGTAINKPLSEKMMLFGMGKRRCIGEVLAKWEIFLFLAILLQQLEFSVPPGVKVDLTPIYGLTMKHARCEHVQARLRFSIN
# [10] = biological target: Cytochrome P450 2C9 (Homo sapiens, UniProt P11712)
# [11] = biological target: T3, Alkaline phosphatase, tissue-nonspecific isozyme (Homo sapiens, UniProt P05186); assay: potency against alkaline phosphatase TNAP – biochemical, luminescent, dose response, SAR follow-up (AID 1056)
# T3 sequence (P05186 whole entry): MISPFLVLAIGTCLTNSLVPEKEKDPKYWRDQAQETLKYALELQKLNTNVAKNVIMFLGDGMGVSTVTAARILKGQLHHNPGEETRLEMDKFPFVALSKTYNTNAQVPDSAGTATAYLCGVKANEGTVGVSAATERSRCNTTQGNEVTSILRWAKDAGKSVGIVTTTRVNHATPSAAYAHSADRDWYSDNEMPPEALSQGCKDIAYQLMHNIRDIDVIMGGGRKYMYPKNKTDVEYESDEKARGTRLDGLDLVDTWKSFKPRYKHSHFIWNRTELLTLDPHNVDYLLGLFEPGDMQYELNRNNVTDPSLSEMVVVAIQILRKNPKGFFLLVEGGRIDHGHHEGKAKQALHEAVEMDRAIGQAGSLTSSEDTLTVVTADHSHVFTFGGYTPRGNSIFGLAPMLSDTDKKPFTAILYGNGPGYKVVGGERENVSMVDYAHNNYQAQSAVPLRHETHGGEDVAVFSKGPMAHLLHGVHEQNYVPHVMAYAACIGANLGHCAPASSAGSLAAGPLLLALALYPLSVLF
# [12] = biological target: Alkaline phosphatase, placental type (Homo sapiens, UniProt P05187); assay: human placental alkaline phosphatase inhibition – biochemical, luminescence, confirmation (AID 1512); format: functional
# [13] = biological target: T4, Histone-lysine N-methyltransferase NSD2 (Homo sapiens, UniProt O96028); format: biochemical
# T4 sequence (O96028 whole entry): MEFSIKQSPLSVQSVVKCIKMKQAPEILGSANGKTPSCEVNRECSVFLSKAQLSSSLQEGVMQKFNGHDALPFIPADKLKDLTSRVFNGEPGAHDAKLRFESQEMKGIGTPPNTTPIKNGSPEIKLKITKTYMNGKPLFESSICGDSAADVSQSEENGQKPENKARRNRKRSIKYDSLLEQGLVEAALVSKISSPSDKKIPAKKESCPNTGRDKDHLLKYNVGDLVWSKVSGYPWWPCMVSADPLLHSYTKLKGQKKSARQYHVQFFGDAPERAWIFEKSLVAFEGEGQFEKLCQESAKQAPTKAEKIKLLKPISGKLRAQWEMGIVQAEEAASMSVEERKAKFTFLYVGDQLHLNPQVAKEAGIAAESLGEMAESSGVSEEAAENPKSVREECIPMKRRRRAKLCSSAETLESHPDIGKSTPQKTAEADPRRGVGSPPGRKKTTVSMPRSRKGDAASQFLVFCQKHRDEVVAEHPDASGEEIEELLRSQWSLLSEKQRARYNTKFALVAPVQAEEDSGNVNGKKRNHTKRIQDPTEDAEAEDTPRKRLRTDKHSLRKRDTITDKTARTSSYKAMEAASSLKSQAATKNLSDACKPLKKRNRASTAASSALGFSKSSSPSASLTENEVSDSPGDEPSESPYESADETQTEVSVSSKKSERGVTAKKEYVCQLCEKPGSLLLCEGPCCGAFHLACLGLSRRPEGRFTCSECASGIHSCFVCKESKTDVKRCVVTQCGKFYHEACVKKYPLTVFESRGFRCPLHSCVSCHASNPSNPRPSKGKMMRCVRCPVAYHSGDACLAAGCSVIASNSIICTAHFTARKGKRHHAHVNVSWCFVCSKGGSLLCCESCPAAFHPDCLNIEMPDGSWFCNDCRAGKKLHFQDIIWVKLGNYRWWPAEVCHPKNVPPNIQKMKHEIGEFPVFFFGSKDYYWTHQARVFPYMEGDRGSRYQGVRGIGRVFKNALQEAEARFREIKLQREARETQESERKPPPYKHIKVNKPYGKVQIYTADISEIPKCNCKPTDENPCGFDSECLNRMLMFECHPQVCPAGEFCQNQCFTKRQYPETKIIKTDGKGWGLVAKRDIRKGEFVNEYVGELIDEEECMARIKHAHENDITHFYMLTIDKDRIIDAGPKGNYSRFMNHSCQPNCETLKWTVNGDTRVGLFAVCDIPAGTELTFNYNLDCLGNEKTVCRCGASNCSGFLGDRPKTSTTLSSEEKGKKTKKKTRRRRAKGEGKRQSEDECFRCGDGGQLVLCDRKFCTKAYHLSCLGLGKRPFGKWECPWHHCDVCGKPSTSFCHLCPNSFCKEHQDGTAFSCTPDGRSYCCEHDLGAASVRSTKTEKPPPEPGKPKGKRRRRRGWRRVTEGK
# [14] = system: HeLa; assay: ATP-based viability loss in HeLa cells – cell-based, CellTiter-Glo luminescence, cherry-pick samples, cytotoxicity control for MITF activator project, dose response (AID 540259); format: functional; settings: Homo sapiens
# [15] = system: Vero; assay: cells; format: functional, cell-based; settings: Chlorocebus sabaeus
# [16] = viability of uninfected HEp-2 cells – cell-based, HTS, cytotoxicity control for RSV inhibitor project, dose response (AID 2410); format: functional; settings: human respiratory syncytial virus
# [17] = cells
# [18] = biological target: T5, Microphthalmia-associated transcription factor (Homo sapiens, UniProt O75030); assay: reducers of TRPM1 reporter luminescence, concentration series – cell-based, SK-MEL-5, cherry-picked, set 3, MITF inhibitor project, dose response (AID 493073); format: functional;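 also: SK-MEL-5 melanoma cells with luciferase driven by the MITF target TRPM1 promoter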
# T5 sequence (O75030 whole entry): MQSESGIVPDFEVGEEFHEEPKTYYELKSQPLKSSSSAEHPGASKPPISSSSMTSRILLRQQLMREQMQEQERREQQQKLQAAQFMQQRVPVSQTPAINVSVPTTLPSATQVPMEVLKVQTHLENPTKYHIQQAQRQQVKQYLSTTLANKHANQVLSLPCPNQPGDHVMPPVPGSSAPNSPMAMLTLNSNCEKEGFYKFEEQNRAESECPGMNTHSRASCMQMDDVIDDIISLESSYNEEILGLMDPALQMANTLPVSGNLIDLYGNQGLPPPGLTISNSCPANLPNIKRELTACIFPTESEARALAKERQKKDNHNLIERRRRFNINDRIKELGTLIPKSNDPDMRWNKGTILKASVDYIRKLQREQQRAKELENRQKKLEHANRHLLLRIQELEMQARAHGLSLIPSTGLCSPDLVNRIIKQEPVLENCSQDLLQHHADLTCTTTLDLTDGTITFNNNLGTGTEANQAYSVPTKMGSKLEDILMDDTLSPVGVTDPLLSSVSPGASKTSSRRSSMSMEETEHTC
# [19] = system: Vero; assay: cells; format: functional; settings: Chlorocebus sabaeus
# [20] = biological target: T6, Rac GTPase-activating protein 1 (Homo sapiens, UniProt Q9H0H5); assay: blockers of MgcRacGAP-driven Rac1 GTP hydrolysis – biochemical, ADP Hunter fluorescence, primary and confirmatory, confirmation (AID 624330); format: functional
# T6 sequence (Q9H0H5 whole entry): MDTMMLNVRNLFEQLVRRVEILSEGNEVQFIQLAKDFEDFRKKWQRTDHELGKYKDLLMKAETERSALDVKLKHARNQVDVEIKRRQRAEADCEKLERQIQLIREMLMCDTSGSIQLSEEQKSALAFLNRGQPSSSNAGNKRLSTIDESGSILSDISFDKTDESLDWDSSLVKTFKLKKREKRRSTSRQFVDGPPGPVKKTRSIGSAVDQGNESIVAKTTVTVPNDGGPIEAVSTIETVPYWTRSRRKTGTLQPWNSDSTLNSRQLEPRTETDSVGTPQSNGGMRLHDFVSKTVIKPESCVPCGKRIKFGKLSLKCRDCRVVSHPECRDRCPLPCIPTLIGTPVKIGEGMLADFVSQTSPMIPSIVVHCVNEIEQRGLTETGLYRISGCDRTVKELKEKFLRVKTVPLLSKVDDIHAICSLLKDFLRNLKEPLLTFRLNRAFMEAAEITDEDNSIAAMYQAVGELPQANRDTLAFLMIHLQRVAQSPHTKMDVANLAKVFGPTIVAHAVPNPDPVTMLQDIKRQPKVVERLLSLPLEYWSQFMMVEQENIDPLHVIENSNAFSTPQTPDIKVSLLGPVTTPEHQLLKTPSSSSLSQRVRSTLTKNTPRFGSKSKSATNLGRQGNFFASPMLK
# [21] = biological target: Induced myeloid leukemia cell differentiation protein Mcl-1 (Homo sapiens, UniProt Q07820); format: functional
# [22] = biological target: T7, SUMO-activating enzyme (Homo sapiens, UniProt Q9UBT2); assay: blockers of SAE1/SAE2–UBC9 SUMO transfer – biochemical, HTRF, uHTS, primary screen (AID 2006); format: protein-complex assay
# [23] = biological target: T7, SUMO-activating enzyme; assay: blockers of UBC9-mediated SUMO conjugation – biochemical, AlphaScreen, SUMOylation inhibitor project, confirmation (AID 2018); format: functional
# Cytochrome P450 2D6, sequence (P10635 whole entry): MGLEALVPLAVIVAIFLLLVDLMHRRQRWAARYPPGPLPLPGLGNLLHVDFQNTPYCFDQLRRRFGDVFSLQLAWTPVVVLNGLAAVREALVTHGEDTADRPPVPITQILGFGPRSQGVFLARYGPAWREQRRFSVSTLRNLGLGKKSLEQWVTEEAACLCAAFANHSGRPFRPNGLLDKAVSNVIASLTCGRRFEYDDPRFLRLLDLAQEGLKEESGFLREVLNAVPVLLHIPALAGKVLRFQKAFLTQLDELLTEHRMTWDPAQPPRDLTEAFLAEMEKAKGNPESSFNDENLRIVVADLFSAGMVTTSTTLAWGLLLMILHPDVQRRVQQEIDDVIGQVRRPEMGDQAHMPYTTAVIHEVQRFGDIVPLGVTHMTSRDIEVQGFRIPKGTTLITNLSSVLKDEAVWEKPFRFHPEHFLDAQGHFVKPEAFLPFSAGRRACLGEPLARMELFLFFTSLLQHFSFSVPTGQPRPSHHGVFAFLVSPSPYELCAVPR
# T7 sequence (Q9UBE0 whole entry): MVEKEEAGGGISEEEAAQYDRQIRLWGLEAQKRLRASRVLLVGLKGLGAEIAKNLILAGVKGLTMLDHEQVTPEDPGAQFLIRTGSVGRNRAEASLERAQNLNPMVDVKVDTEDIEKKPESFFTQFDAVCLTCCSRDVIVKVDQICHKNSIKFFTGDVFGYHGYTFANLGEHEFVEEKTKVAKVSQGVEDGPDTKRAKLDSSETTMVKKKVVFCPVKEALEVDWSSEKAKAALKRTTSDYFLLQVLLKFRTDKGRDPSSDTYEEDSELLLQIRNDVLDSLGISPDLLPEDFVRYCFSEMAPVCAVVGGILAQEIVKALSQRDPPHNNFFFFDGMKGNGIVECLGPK
# T7 sequence (Q9UBT2 whole entry): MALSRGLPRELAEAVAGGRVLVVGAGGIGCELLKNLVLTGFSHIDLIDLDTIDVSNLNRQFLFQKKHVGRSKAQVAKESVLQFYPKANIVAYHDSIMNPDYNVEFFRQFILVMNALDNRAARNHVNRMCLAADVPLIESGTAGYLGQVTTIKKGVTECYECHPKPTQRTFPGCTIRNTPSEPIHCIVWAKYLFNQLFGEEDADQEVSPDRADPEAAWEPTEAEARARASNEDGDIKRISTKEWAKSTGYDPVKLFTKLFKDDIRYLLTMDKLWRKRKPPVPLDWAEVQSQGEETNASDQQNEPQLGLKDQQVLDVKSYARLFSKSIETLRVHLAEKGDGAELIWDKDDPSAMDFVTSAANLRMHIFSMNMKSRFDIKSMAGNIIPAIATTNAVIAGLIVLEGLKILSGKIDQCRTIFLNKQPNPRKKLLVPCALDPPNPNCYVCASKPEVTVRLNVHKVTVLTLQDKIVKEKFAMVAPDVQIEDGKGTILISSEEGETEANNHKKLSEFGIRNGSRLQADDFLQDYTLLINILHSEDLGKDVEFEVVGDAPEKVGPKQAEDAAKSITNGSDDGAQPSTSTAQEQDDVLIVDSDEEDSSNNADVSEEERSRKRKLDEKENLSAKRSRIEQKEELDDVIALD
# Cytochrome P450 2C19, sequence (P33261 whole entry): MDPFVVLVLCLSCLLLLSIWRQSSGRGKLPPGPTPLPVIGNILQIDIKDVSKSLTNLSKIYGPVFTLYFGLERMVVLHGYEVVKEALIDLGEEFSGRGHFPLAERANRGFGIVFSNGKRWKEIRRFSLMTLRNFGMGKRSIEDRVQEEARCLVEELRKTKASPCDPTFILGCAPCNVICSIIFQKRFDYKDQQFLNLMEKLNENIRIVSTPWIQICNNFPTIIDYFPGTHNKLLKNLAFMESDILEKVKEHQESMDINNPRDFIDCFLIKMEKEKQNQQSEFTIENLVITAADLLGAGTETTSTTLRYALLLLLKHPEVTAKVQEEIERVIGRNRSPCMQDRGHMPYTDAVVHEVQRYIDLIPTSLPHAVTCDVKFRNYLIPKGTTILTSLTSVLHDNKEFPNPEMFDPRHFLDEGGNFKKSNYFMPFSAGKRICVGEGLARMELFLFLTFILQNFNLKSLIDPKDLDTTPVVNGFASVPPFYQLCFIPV
# Alkaline phosphatase, placental type, sequence (P05187 whole entry): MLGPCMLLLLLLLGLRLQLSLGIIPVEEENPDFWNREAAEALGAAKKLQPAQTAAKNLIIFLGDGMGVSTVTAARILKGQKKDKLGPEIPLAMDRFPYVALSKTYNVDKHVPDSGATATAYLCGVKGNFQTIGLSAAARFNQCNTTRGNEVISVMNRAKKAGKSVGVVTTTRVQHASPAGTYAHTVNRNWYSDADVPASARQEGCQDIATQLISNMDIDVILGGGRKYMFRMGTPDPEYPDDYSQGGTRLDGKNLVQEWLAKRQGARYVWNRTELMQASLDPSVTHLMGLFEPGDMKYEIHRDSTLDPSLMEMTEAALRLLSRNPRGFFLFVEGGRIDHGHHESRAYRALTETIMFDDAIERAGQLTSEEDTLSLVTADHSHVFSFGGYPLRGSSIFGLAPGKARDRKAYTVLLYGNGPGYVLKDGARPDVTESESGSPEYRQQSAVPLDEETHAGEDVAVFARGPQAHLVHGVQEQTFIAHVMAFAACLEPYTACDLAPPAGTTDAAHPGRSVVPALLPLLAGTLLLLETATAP
# Induced myeloid leukemia cell differentiation protein Mcl-1, sequence (Q07820 whole entry): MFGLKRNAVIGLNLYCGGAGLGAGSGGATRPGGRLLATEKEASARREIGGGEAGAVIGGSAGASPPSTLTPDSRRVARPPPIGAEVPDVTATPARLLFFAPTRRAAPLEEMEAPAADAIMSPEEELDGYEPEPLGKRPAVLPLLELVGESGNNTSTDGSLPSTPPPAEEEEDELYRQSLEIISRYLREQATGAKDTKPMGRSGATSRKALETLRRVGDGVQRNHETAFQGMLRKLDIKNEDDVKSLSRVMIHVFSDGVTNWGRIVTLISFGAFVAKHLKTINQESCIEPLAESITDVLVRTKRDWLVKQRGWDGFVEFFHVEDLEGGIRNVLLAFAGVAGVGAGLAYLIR
# Cytochrome P450 2C9, sequence (P11712 whole entry): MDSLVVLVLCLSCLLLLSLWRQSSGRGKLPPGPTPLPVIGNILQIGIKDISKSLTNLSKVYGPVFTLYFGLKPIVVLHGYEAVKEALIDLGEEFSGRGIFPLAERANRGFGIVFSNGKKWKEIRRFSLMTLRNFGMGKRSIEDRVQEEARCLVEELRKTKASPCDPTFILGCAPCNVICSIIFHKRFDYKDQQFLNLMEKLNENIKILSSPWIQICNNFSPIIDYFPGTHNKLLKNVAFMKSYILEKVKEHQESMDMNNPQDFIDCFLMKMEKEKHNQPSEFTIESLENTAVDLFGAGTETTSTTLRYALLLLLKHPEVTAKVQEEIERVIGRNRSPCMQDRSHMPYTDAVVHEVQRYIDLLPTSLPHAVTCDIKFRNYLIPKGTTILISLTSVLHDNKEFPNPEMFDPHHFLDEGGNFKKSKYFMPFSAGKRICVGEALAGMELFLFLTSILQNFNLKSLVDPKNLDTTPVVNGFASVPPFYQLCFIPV
structure (smiles),measurement,setting,value
C[C@@H](c1ccccc1)N1C(=O)[C@H]2[C@@H]3[C@H](O)C=CC(=O)[C@H]3CC[C@H]2C1=O,AC50,[1],inconclusive
same,AC50,[2],inconclusive
CCCCCC/C(=N/O)c1ccccn1,IC50,[3],6.74 µM (active)
same,EC50,[4],40 µM (active)
same,EC50,[5],7.92 µM (active)
same,CC50,[6],15.2 µM (active)
same,EC50,[7],> 150 µM (not active)
same,CC50,[8],20.2 µM (active)
COc1ccc(/C=N/C(CO)C(O)c2ccc([N+](=O)[O-])cc2)cc1 (configuration not stated),AC50,[9],20 µM (inconclusive)
same,AC50,[10],2.51 µM (inconclusive)
same,AC50,[1],inconclusive
NC(=O)c1ccc(-n2nnnc2SCC(=O)c2ccc(O)c(O)c2)cc1,IC50,[11],3.48 µM (active)
same,IC50,[12],1.76 µM (active)
same,AC50,[13],> 20 µM (inactive)
CCNc1nc(N)nc(Oc2ccc(C(=O)OC)cc2)n1,AC50,[14],245 µM (active)
C/C(N)=C(/C#N)C(=O)COC(=O)c1cc(C)n(-c2ccc(F)cc2)c1C,IC50,[15],8.93 µM (active)
same,CC50,[16],18.8 µM (active)
same,IC50,[17],29.9 µM (active)
O=C(O)c1nn(-c2ccccc2)nc1-c1nn(-c2ccccc2)nc1C(=O)O,AC50,[1],inconclusive
Cc1cc(C)nc(Nc2n[nH]c(-c3cccc4ccccc34)n2)n1,AC50,[1],inconclusive
same,AC50,[2]; read-out: AC50,17.8 µM (inconclusive)
CCCN1CCC(NCc2cn(C)nc2-c2ccc(Oc3ccccc3)cc2)CC1,AC50,[18],8.35 µM (active)
same,IC50,[15],23.1 µM (active)
same,CC50,[19],> 25 µM (active)
COc1cc(NCCC(=O)c2cccs2)c(OC)cc1Cl,IC50,[3],8.46 µM (active)
same,IC50,[20],58.1 µM (active)
same,CC50,[6],> 20 µM (active)
same,IC50,[21],4.38 µM (not active)
COc1ccc(C(=O)Nc2ccc(-c3nnn(CC(=O)N4CCN(C(=O)c5ccco5)CC4)n3)cc2)cc1,IC50,[22],30 µM (active)
same,IC50,[23],13 µM (active)
CCN(CC)c1ccc(NC(=O)CSc2nc(C3CC3)nc3ccccc23)cc1C,IC50,[22],27 µM (active)
same,IC50,[23],7.43 µM (active)
